Where two headings read alike, the source gives them in different places.
Legend:
[1] = target: HCMV DNA pol (Human cytomegalovirus, UniProt P08546); test: HCMV DNA polymerase activity, calf thymus DNA as template primer; type: biochemical; details: [3H]dTTP incorporation, all four dNTPs
Description: (§1) The HCMV and HSV-1 DNA polymerase activity was measured in the presence of calf thymus DNA as template primer, and all four dNTPs as the nucleotide substrates of which dTTP was tritiated.

[2] = target: HSV-1 DNA pol (Human herpesvirus 1, UniProt P04293); test: HSV-1 DNA polymerase activity, calf thymus DNA as template primer; type: biochemical; details: [3H]dTTP incorporation, all four dNTPs
HSV-1 DNA pol, sequence (P04293 whole entry): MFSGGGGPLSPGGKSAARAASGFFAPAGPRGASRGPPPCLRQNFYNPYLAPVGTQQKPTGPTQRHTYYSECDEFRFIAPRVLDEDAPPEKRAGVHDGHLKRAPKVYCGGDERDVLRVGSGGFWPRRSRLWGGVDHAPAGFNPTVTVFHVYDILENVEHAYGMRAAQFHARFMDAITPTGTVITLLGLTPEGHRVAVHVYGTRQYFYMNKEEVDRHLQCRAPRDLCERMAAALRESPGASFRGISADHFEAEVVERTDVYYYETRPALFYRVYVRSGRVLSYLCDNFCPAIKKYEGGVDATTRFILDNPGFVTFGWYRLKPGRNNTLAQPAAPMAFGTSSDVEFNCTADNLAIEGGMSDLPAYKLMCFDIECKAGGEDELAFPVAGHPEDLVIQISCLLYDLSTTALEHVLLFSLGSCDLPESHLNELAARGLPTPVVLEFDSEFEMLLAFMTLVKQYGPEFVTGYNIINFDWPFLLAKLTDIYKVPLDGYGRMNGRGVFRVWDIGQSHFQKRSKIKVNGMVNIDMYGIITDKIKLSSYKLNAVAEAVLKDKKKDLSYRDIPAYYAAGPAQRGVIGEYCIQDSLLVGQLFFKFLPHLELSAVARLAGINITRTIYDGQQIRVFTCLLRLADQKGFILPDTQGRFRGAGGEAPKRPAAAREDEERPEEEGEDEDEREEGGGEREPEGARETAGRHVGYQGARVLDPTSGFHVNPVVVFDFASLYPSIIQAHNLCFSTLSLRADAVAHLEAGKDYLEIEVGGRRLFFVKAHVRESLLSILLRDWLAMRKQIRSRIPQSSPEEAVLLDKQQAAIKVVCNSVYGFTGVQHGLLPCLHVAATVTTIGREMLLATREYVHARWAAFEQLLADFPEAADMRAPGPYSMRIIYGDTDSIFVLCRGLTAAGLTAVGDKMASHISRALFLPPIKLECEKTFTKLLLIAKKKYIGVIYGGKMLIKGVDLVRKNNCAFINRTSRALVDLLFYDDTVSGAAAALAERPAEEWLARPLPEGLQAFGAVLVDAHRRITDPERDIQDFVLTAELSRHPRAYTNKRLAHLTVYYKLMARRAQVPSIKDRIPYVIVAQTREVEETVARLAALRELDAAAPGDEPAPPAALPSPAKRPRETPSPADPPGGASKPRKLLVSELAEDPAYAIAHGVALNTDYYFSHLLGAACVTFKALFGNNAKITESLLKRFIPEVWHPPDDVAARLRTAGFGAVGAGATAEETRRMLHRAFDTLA
Description: as §1

[3] = target: T1, HIV-1 RT (Human immunodeficiency virus type 1 group M subtype B, UniProt P04585); test: HIV-1 RT assay in the presence of artificial template/primer; type: biochemical
T1 construct: HIV-1 RT Assays in the Presence of Artificial Template/Primer
Description: HIV-1 RT Assays in the Presence of Artificial Template/Primer
To prepare the template/primers for the RT experiments, 0.15 mM poly(U), poly(A), and poly(I) were mixed with an equal volume of 0.0375 mM oligo(dA), oligo(dT), and oligo(dC), respectively. The final concentrations of the templates in the RT reaction mixture were 0.015 mM. The reaction mixture (50 μl) contained 50 mM Tris.HCl (pH 7.8), 5 mM dithiothreitol, 300 mM glutathione, 500 μM EDTA, 150 mM KCl, 5 mM MgCl2, 1.25 μg of bovine serum albumin, an appropriate concentration of labeled (tritiated) substrate dTTP, dCTP, or dATP (2 μCi/assay), a fixed concentration of the template/primer poly(A).oligo(dT) (0.015 mM), poly(I).oligo(dC) (0.015 mM), and poly(U).oligo(dA) (0.015 mM), 0.06% Triton X-100, 10 μl of inhibitor solution (containing various concentrations of the compounds), and 1 μl of the RT preparation. The reaction mixtures were incubated at 37° C. for 30 min, at which time 100 μl of yeast RNA (1 mg/ml) and 1 ml of Na4P2O7 (0.02 M) in trichloroacetic acid (5% v/v) were added. The solutions were kept on ice for 30 min, after which the acid-insoluble material was washed and analyzed for radioactivity.

[4] = values marked *: in poly rA.dT/dTTP RT assay, read-out: IC50 HIV-1 RT

HCMV DNA pol, sequence (P08546 whole entry): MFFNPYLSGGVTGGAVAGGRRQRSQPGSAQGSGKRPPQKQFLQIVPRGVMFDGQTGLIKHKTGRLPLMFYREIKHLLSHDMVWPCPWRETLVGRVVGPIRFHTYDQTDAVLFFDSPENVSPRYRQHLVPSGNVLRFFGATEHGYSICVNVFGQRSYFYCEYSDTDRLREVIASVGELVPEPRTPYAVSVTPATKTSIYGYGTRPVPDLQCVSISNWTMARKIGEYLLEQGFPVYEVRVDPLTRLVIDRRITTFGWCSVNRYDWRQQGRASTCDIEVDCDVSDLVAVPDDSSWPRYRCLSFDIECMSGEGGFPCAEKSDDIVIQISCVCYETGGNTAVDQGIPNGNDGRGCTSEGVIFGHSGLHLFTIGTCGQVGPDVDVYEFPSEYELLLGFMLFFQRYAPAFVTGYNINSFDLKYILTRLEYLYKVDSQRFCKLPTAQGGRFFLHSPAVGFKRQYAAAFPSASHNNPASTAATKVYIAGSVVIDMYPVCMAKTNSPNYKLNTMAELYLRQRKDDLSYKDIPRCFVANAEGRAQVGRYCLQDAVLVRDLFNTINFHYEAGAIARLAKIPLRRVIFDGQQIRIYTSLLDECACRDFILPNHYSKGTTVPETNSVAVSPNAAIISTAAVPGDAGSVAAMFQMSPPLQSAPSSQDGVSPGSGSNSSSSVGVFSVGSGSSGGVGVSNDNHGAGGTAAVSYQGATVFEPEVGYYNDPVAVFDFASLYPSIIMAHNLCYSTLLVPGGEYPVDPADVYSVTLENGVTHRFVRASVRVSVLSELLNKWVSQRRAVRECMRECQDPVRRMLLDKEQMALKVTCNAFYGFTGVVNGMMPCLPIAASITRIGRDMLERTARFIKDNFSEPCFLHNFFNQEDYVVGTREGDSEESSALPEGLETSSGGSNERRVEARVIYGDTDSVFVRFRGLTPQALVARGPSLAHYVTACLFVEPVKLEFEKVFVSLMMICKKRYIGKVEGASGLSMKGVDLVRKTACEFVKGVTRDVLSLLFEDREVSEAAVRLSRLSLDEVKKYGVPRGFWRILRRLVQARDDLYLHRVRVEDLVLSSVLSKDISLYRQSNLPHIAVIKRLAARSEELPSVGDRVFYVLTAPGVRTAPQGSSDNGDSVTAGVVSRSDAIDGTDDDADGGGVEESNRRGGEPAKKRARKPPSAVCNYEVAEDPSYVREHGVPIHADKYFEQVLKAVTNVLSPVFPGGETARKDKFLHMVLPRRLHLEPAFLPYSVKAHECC

SMILES | IC50 [1] [µM] | IC50 [2] [µM] | IC50 [3] [µM] | IC50 [3, 4] [µM] | melting point [°C]
COC(=O)C(OC[C@@H]1CCCC[C@@H]1Cn1cc(C)c(=O)[nH]c1=O)P(=O)(O)O (stereo partly drawn) [Compound 13j] | 16 ± 3 | 43 | ≥ 500 |  | 
Cc1cn(C[C@H]2C[C@H]2COC(C(=O)O)P(=O)(O)O)c(=O)[nH]c1=O (stereo partly drawn) [Compound 13c] | 4.6 ± 0.2 | 35 | 440 ± 85 |  | 
Cc1cn(C/C=C\COC(C(=O)O)P(=O)(O)O)c(=O)[nH]c1=O (stereo not drawn) [Compound 13a, cis-2-(4-(2,4-Dioxo-5-methyl-pyrimidin-1-yl)but-2-enyloxy)-2-phosphonoacetic acid] | 2.1 ± 0.6 | 20 | 235 ± 16 |  | 
Cc1cn(CC#CCOC(C(=O)O)P(=O)(O)O)c(=O)[nH]c1=O (stereo not drawn) [Compound 13b, 2-(4-(2,4-Dioxo-5-methyl-pyrimidin-1-yl)but-2-ynyloxy)-2-phosphonoacetic acid] | > 500 |  | > 500 |  | 
Cc1cn(C[C@H]2CCC[C@H]2COC(C(=O)O)P(=O)(O)O)c(=O)[nH]c1=O (stereo partly drawn) [Compound 13d] | 40 ± 25 | 34 | ≥ 500 |  | 
O=C(O)C(OCCCCn1cc(F)c(=O)[nH]c1=O)P(=O)(O)O (stereo not drawn) [Compound 13l, 2-(4-(5-fluoro-2,4-dioxo-3,4-dihydropyrimidin-1(2H)-yl)butoxy)-2-phosphonoacetic acid] |  |  |  | 214 | 
Cc1cn(CCOC(C(=O)O)P(=O)(O)O)c(=O)[nH]c1=O (stereo not drawn) [Compound 8a, 2-(2-(5-Methyl-2,4-dioxo-3,4-dihydropyrimidin-1(2H)-yl)ethoxy)-2-phosphonoacetic acid] | 161 ± 8 | 19 | 17 |  | 
Cc1cn(CCCCOC(C(=O)O)P(=O)(O)O)c(=O)[nH]c1=O (stereo not drawn) [Compound 13h, 2-(4-(2,4-Dioxo-5-methyl-pyrimidin-1-yl)butyloxy)-2-phosphonoacetic acid] | 29 ± 3 | 56 | 145 ± 106 |  | 
Nc1ccn(C/C=C\COC(C(=O)O)P(=O)(O)O)c(=O)n1 (stereo not drawn) [Compound 13o, 2-Cis-(4-(4-amino-2-oxopyrimidin-1(2H)-yl)but-2-enyloxy)-2-phosphonoacetic acid] |  |  |  | 246 | 
Cc1cn(Cc2ccccc2COC(C(=O)O)P(=O)(O)O)c(=O)[nH]c1=O (stereo not drawn) [Compound 13g, 2-(2-((2,4-Dioxo-5-methyl-pyrimidin-1-yl)methyl)benzyloxy)-2-phosphonoacetic acid] | 13 ± 4 | 11 | 131 ± 86 |  | 
Nc1ncnc2c1ncn2C/C=C\COC(C(=O)O)P(=O)(O)O (stereo not drawn) [Compound 13m, 2-Cis-(4-(6-amino-9H-purin-9-yl)but-2-enyloxy)-2-phosphonoacetic acid] |  |  |  | 426 | 
Cc1cn(C[C@@H](O)[C@@H](O)COC(C(=O)O)P(=O)(O)O)c(=O)[nH]c1=O (stereo partly drawn) [JJ-379] |  |  |  |  | 199 to 201
Cc1cn(C[C@H]2C3C=CC(C3)[C@H]2COC(C(=O)O)P(=O)(O)O)c(=O)[nH]c1=O (stereo partly drawn) [Compound 13f] | 14 ± 2 | 32 | 340 ± 139 |  | 
Cc1cn(C(C)COC(C(=O)O)P(=O)(O)O)c(=O)[nH]c1=O (stereo not drawn) [Compound 8c, 2-(2-(5-Methyl-2,4-dioxo-3,4-dihydropyrimidin-1(2H)-yl)propoxy)-2-phosphonoacetic acid] | > 200 | 16 | 133 ± 16 |  | 
Cc1cn(CC(C)OC(C(=O)O)P(=O)(O)O)c(=O)[nH]c1=O (stereo not drawn) [Compound 8b, 2-((1-(5-Methyl-2,4-dioxo-3,4-dihydropyrimidin-1(2H)-yl)propan-2-yl)oxy)-2-phosphonoacetic acid] | 111 ± 24 | 12 | 18 |  | 
Cc1cn(C[C@H]2CCCC[C@H]2COC(C(=O)O)P(=O)(O)O)c(=O)[nH]c1=O (stereo partly drawn) [Compound 13i] | 4 | 13 | ≥ 500 |  | 
Nc1nc(Cl)c2ncn(C/C=C\COC(C(=O)O)P(=O)(O)O)c2n1 (stereo not drawn) [Compound 13n, 2-Cis-(4-(2-amino-6-chloro-9H-purin-9-yl)but-2-enyloxy)-2-phosphonoacetic acid] |  |  |  | ≥ 500 | 
Cc1cn(Cc2cn(CCOC(C(=O)O)P(=O)(O)O)nn2)c(=O)[nH]c1=O (stereo not drawn) [JJ-210, 2-(2-(4-((5-methyl-2,4-dioxo-3,4-dihydropyrimidin-1(2H)-yl)methyl)-1H-1,2,3-triazol-1-yl)ethoxy)-2-phosphonoacetic acid] |  |  |  |  | 189 to 191
Cc1cn(C[C@H]2CC=CC[C@H]2COC(C(=O)O)P(=O)(O)O)c(=O)[nH]c1=O (stereo partly drawn) [Compound 13e] | 3 ± 0.5 | 16 | 425 ± 106 |  | 
O=C(O)C(OC/C=C\Cn1cc(F)c(=O)[nH]c1=O)P(=O)(O)O (stereo not drawn) [Compound 13k, 2-Cis-(4-(5-fluoro-2,4-dioxo-3,4-dihydropyrimidin-1(2H)-yl)but-2-enyloxy)-2-phosphonoacetic acid] |  |  |  | > 500 | 

From patent publication US10167302B2, “Phosphonate nucleosides useful in the treatment of viral diseases” (University College Cork, priority 2014, dated 2019)
